{"source": "patent US6403589B1", "about": "“Method of treating pain with draflazine-analogues” (Janssen Pharmaceutica N.V., priority 1997, dated 2002)", "key": {"[1]": {"test_system": "patients with unstable angina", "details": "during the 24 hour observation period; draflazine treated patients with unstable angina; cited from earlier work"}, "[2]": {"test_system": "rabbits", "details": "acute pain stimulus; cited from earlier work"}, "[3]": {"test_system": "dogs", "details": "acute pain stimulus; cited from earlier work"}, "[4]": {"test_system": "mice", "details": "acute pain stimulus; cited from earlier work"}}}
{"compound": "CNC(=O)C1CN(CC(=O)Nc2c(Cl)cccc2C(C)=O)CCN1CCCC=C(c1ccc(F)cc1)c1ccc(F)cc1.O=C(O)C(=O)O.O=C(O)C(=O)O", "note": "(racemic) [Compound 18, (±)-N-(2-acetyl-6-chlorophenyl)-4-[5,5-bis(4-fluorophenyl)-4-pentenyl]-3-[(methylamino)carbonyl]-1-piperazineacetamide ethanedioate (1:2)]", "values": [{"measurement": "melting point", "value": 140, "unit": "°C"}]}
{"compound": "CNC(=O)C1CN(CC(=O)Nc2c(C)cc(C)cc2C)CCN1CCCC(c1ccc(F)cc1)c1ccc(F)cc1", "note": "(stereo not shown) [Compound 1, 4-[4,4-bis(4-fluorophenyl)butyl]-3-[(methylamino)-carbonyl]-N-(2,4,6-trimethylphenyl)-1-piperazineacetamide]", "values": [{"measurement": "melting point", "value": 82.3, "unit": "°C"}]}
{"compound": "CNC(=O)C1CN(CCCC(c2ccc(F)cc2)c2ccc(F)cc2)CCN1CC(=O)Nc1c(C)cc(C)cc1C", "note": "(stereo not shown) [Compound 2, 4-[4,4-bis(4-fluorophenyl)butyl]-2-[(methylamino)carbonyl]-N-(2,4,6-trimethylphenyl)-1-piperazineacetamide]", "values": [{"measurement": "melting point", "value": 90.2, "unit": "°C"}]}
{"compound": "NC(=O)[C@@H]1CN(CCCCC(c2ccc(F)cc2)c2ccc(F)cc2)CCN1CC(=O)Nc1c(Cl)cc(N)cc1Cl", "note": "[Compound 13, S-(−)-2-(aminocarbonyl)-N-(4-amino-2,6-dichlorophenyl)-4-[5,5-bis(4-fluorophenyl)-pentyl]-1-piperazineacetamide]", "values": [{"measurement": "mean duration of chest pain", "setting": "[1]", "value": 75.5, "unit": "min"}]}
{"compound": "Cc1cccc(C)c1NC(=O)CN1CCN(CCCC(c2ccc(F)cc2)c2ccc(F)cc2)CC1", "note": "[lidoflazine]", "values": [{"measurement": "pain treshold to electrical stimulation of incisor teeth", "setting": "[2]", "value": "increased"}, {"measurement": "pain treshold to electrical stimulation of canine teeth", "setting": "[3]", "value": "not"}, {"measurement": "reaction time to thermal stimulation", "setting": "[4]", "value": "significantly increased"}]}
